The test system of assay [1] is LPS-induced TNFα secretion in monocyte-derived macrophages (MdM). Put plainly: MdM assay: LPS-triggered TNFα (ELISA). Format: cell-based, human. The settings on record: Homo sapiens, Macrophage, LPS-triggered TNFα inhibition. The procedure: This assay evaluates illustrative compounds of the invention for their inhibition of LPS-induced TNFα and LPS triggered IL-10 secretion in monocyte-derived macrophages.
PBMCs are isolated from human blood samples (buffycoats). The buffy coat is aseptically transferred into a 50 mL Falcon tube, and diluted 1/2 in PBS. Falcon tubes are filled with 20 mL Lymphoprep™, on top of which 25 mL of the buffy coat is carefully added, tubes are centrifuged for 35 min at 400 g in temperature controlled centrifuge, without brake, at 25° C. PBMCs are aspirated from the white interface layer between sample and Lymphoprep™. PBMCs are washed five times in PBS.
PBMCs are centrifuged at 300×g for 10 min and resuspended at a density of 1.0E07 cells/80 μL Miltenyi buffer (PBS, pH 7.4, 1% FBS, 2 mM EDTA).
Starting from this point of the protocol all steps are performed on ice. 20 μL of CD14+ micro-beads are added per 1.0E07 cells, the tube is mixed and incubated for 15 min in the fridge at 4° C. Cell suspension volume is adjusted to total volume of 100 mL using Miltenyi buffer, mixed gently and subsequently centrifuged for 10 min at 300× g. Supernantant is discarded and cell pellet is resuspended in 12 mL of Miltenyi buffer.
Four LS columns are placed in the MACS Separator (magnet) from Miltenyi Biotec, and are prewet by rinsing with 3 mL of MACS buffer per column. Three mL of cell suspension is added onto the column (max 1*10^8 of labelled cells/column), and columns are subsequently washed 3 times with 3 mL of Miltenyi buffer.
The columns are removed from the magnets, and 5 mL of Miltenyi buffer are added to the column to flush out the CD14+ fraction by pushing the plunger into the column. The flushed fractions are collected in a fresh 50 mL Falcon and volume is adjusted to 30 mL using Miltenyi buffer, cells are centrifuged for 10 min at 300× g. The obtained cell pellet is resuspended in 10 mL RPMI w/o FBS, and cell density is determined using a hematologic analyser (Sysmex XS-500i).
On day 10, MdMs are triggered and compound is added.
A compound dilution plate is made in 100% DMSO by 3-fold dilution of 10 mM stock solution. An intermediate dilution plate (10× final concentration) is made by diluting the compound dilution plate 50-fold in RPMI medium.
Medium is carefully removed from cell plates using multichannel pipette, and replaced by 80 μL fresh medium. 10 μL of the 10× final concentration compound is added to the cells and incubated for 1 hour at 37° C. before addition of trigger. No trigger conditions/trigger conditions are spiked with equal final DMSO concentrations of 0.2% DMSO. 10 μL of 10×LPS (final conc. 200 ng/mL) solution are added to all wells except for the ‘no trigger wells’ where 10 μL medium is added. Supernatant is collected after 2 h (IL-10 determination) and after 20 h (TNFα determination) of LPS triggering.
The plate is then washed once with PBST (PBS+0.05% Tween20) and once with PBS followed by the addition of 100 μL of blocking buffer (1% Bovine Serum Albumin (BSA)-5% Sucrose) and plates are sealed and incubated for at least 4 h at RT. After washing the plate once with PBST and once with PBS, 40 μL of standard or sample are added (TNFα standard curve is prepared using a 1/2 serial dilution starting from 16000 pg/mL; dilutions are made in dilution buffer (PBS+1% BSA)). Plates are washed twice with PBST, and once with PBS, after which 35 μL of the detection antibody is added (final concentration 0.25 μg/mL diluted in dilution buffer) and plates are incubated for at least 2 h at RT. Plates are washed twice with PBST, and once with PBS, where after 35 μL of Strep-HRP conjugate (0.5 μg/mL final concentration diluted in dilution buffer) is added. Plates are incubated in the dark, at RT for at least 45 min but no longer than 1 hour. Plates are washed twice with PBST, and once with PBS.
For orientation: An ELISA detects its analyte on a solid surface through an enzyme-linked reagent.

The target in the next assay is T1, SIK3 (Homo sapiens, UniProt Q9Y2K2).
T1 construct: purchased SignalChem S12-11G-100
T1 sequence (Q9Y2K2 whole entry): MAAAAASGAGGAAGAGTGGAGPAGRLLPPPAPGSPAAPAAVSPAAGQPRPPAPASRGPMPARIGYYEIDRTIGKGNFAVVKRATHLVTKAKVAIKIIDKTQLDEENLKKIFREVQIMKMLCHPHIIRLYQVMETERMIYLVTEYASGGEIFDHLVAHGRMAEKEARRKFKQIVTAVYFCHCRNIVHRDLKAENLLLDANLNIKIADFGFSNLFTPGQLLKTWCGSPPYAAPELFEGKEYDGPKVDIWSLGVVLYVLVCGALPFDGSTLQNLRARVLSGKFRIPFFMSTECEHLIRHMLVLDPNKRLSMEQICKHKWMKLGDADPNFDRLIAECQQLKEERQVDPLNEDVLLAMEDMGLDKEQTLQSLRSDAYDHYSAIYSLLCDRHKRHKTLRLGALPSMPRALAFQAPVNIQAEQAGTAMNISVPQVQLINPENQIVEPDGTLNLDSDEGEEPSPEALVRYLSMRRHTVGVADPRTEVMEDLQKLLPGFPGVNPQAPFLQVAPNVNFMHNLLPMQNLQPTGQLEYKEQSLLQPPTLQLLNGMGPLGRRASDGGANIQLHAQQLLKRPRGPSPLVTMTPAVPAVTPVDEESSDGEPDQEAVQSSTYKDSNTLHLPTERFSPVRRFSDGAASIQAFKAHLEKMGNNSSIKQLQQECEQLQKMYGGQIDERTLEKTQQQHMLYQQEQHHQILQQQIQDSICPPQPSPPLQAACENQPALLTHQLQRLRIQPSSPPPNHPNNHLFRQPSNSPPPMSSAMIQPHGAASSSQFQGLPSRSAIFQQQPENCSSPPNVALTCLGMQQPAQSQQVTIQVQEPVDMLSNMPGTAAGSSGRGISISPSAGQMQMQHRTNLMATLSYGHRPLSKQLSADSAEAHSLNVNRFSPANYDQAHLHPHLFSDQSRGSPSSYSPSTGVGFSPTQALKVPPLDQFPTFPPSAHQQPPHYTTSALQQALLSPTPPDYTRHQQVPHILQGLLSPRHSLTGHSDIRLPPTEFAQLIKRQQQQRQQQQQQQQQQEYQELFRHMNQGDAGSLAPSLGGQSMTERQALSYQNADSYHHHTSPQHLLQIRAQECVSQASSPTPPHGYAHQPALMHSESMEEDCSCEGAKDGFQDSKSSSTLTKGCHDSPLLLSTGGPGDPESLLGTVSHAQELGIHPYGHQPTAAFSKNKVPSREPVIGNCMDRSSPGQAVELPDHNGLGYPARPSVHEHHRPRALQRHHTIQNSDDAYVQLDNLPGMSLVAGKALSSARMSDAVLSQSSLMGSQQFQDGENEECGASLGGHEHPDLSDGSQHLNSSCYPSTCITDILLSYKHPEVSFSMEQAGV
The assay is described as follows: biochemical. The gist of the method: (§1)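 Radiometric assay: SIK1, SIK2 or SIK3 phosphorylates AMARA peptide using unlabelled plus [^33P]-γ-ATP, reaction started by ATP addition. Stopped with 150 mM phosphoric acid, filter-harvested and washed; incorporated ^33P counted by scintillation. Controls: 1% DMSO and 10 μM staurosporine final.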

The next assay addresses T2, SIK1 (Homo sapiens, UniProt P57059).
T2 construct: purchased Carna Biosciences 02-131
Put plainly: biochemical. The conditions noted are these: 33P radioactive SIK kinase assay, AMARA peptide, 10 μM ATP; read-out: SIK1 IC50. The gist of the method:
as §1

For a further assay, the target named is T3, SIK2 (Homo sapiens, UniProt Q9H0K1).
T3 construct: purchased ThermoFisher Scientific PV4792
T3 sequence (Q9H0K1 whole entry): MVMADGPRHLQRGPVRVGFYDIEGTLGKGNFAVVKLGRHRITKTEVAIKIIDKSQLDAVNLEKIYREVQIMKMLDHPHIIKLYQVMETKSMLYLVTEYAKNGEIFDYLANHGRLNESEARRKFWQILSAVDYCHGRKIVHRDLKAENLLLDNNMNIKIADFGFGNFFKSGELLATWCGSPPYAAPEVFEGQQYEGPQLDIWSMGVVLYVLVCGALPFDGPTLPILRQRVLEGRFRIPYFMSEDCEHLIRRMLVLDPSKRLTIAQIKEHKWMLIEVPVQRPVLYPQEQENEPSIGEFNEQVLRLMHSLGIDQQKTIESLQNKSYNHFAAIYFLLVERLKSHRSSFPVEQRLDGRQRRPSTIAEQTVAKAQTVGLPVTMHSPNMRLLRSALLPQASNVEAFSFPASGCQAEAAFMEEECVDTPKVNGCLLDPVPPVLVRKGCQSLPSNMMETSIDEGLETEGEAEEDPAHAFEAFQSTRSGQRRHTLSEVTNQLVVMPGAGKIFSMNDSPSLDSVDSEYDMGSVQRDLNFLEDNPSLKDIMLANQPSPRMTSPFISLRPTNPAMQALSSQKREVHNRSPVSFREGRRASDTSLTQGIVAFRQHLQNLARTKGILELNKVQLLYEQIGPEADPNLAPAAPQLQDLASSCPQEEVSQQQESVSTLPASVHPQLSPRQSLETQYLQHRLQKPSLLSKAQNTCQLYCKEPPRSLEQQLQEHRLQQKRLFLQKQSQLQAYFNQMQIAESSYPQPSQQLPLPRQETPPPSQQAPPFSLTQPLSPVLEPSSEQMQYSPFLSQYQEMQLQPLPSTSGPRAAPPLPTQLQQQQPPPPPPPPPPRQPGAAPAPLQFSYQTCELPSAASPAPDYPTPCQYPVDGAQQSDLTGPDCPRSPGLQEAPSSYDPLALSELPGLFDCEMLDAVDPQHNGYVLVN
The assay is described as follows: biochemical. The settings on record: 33P radioactive SIK kinase assay, AMARA peptide, 10 μM ATP. A digest of the protocol:
as §1

What is called EC50 is the midpoint of the concentration-response curve. Usually IC50 stands for the concentration that gives 50% inhibition.

T2 sequence (P57059 whole entry): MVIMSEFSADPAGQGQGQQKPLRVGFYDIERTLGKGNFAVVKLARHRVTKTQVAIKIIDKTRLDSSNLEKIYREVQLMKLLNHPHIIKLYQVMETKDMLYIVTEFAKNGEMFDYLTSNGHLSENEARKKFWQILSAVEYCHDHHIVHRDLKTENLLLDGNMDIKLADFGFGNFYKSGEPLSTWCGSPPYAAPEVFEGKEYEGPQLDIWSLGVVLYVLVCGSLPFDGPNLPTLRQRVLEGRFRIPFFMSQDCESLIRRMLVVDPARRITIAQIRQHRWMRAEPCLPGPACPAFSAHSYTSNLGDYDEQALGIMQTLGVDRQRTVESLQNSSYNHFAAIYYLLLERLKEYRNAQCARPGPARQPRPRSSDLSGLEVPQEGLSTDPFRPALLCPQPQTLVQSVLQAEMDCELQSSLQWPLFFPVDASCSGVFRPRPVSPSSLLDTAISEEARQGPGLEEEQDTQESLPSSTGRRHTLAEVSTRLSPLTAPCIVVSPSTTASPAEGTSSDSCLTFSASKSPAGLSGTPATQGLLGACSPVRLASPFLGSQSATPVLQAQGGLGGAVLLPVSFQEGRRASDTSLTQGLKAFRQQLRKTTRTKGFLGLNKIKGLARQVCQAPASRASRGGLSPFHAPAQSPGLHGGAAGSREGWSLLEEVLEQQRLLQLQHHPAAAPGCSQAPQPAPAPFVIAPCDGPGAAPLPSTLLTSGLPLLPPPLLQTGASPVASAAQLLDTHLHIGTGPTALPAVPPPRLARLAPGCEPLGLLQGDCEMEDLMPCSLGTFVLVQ

`CCNC(=O)c1c(OC)cc(-n2cnc3cc(-c4cccnc4)ccc32)cc1OC` [compound 2, N-ethyl-2,6-dimethoxy-4-[5-(3-pyridyl)benzimidazol-1-yl]benzamide] registered an EC50 in assay [1] of 1000 to 5000 nM. Further, the IC50 at SIK3 lay within 10 to 100 nM; at SIK1 it was 100 to 500 nM; at SIK2, 100 to 500 nM.
For `CCn1cc(-c2cnc3c(-c4cc(OC)c(C(=O)NCC(F)F)c(OC)c4)cnn3c2)cn1` [compound 21, N-(2,2-difluoroethyl)-4-[6-(1-ethylpyrazol-4-yl)pyrazolo[1,5-a]pyrimidin-3-yl]-2,6-dimethoxy-benzamide], the EC50 in assay [1] was in the range of 100 to 1000 nM. For the same compound, the figures for the IC50 on SIK3, at SIK1 and at SIK2 were 0.01 to 10 nM, 10 to 100 nM and 0.01 to 10 nM, respectively.
`CCn1cc(-c2ccc3c(c2)ncn3-c2cc(OC)c(C(=O)NC3CCC3)c(OC)c2)cn1` [compound 26, N-cyclobutyl-4-[5-(1-ethylpyrazol-4-yl)benzimidazol-1-yl]-2,6-dimethoxy-benzamide]: the EC50 in assay [1] was in the range of 100 to 1000 nM. Further, the IC50 against SIK3, on SIK1 and at SIK2 was 10 to 100 nM throughout.
For the compound `COc1cc(-n2cnc3cc(-c4ccc(N5CCOCC5)nc4)ccc32)cc(OC)c1C(=O)NCC(F)(F)F` [compound 32, 2,6-dimethoxy-4-[5-(6-morpholino-3-pyridyl)benzimidazol-1-yl]-N-(2,2,2-trifluoroethyl)benzamide], the EC50 in assay [1] was 100 to 1000 nM. The IC50 on SIK3, on SIK1 and at SIK2 was 10 to 100 nM in each case.
Take `COc1cc(-n2cnc3cc(-c4ccc(N5CCCC5)nc4)ccc32)cc(OC)c1C(=O)NCC(F)(F)F` [compound 34, 2,6-dimethoxy-4-[5-(6-pyrrolidin-1-yl-3-pyridyl)benzimidazol-1-yl]-N-(2,2,2-trifluoroethyl)benzamide]: the EC50 in assay [1] was in the range of 100 to 1000 nM. Further, the IC50 was 10 to 100 nM at SIK3, 10 to 100 nM at SIK1 and 0.01 to 10 nM at SIK2.
On to `COc1cc(-n2cnc3cc(-c4cnn(C5CCNCC5)c4)ccc32)cc(OC)c1C(=O)NCC(F)(F)F` [compound 42, 2,6-dimethoxy-4-[5-[1-(4-piperidyl)pyrazol-4-yl]benzimidazol-1-yl]-N-(2,2,2-trifluoroethyl)benzamide], for which the EC50 in assay [1] lay in the range of 100 to 1000 nM. For the same compound, the IC50 against SIK3, at SIK1 and on SIK2 was 0.01 to 10 nM in each case.
On to `CCn1cc(-c2ccc3c(c2)ncn3-c2cc(OC)c(C(=O)NCCC(F)(F)F)c(OC)c2)cn1` [compound 44, 4-[5-(1-ethylpyrazol-4-yl)benzimidazol-1-yl]-2,6-dimethoxy-N-(3,3,3-trifluoropropyl)benzamide], for which the EC50 in assay [1] is 100 to 1000 nM. Further, the IC50 against SIK3, at SIK1 and at SIK2 was 10 to 100 nM each time.
`COc1cc(-n2cnc3cc(-c4cnn(C)c4)ccc32)cc(OC)c1C(=O)N[C@H](C)C(F)(F)F` [compound 58, 2,6-dimethoxy-4-[5-(1-methylpyrazol-4-yl)benzimidazol-1-yl]-N-[(1R)-2,2,2-trifluoro-1-methyl-ethyl]benzamide] returned an EC50 in assay [1] of 100 to 1000 nM. Also, the IC50 against SIK3, on SIK1 and on SIK2 was 10 to 100 nM throughout.
`COc1cc(-n2cnc3cc(-c4cnn(C)c4)ccc32)cc(OC)c1C(=O)NC1CC(F)(F)C1` [compound 125, N-(3,3-difluorocyclobutyl)-2,6-dimethoxy-4-[5-(1-methylpyrazol-4-yl)benzimidazol-1-yl]benzamide] came in with an EC50 in assay [1] of 100 to 1000 nM. Besides, the IC50 at SIK3, on SIK1 and on SIK2 was 10 to 100 nM throughout.
Take `COc1cc(-c2cnc3cc(-c4cnn(C)c4)ccn23)cc(OC)c1C(=O)NCC(C)C` [compound 129, N-isobutyl-2,6-dimethoxy-4-[7-(1-methylpvrazol-4-yl)imidazo[1,2-a]pyridin-3-yl]benzamide]: the EC50 in assay [1] was in the range of 100 to 1000 nM. For the same compound, the IC50 lay in the range of 0.01 to 10 nM on SIK3, 10 to 100 nM on SIK1 and 0.01 to 10 nM at SIK2.
With `CCNC(=O)c1c(OC)cc(-c2cnc3cc(-c4ccnnc4)ccn23)cc1OC(F)F` [compound 145, 2-(difluoromethoxy)-N-ethyl-6-methoxy-4-(7-pyridazin-4-ylimidazo[1,2-a]pyridin-3-yl)benzamide], the EC50 in assay [1] is 1000 to 5000 nM. For the same compound, the IC50 on SIK3, on SIK1 and on SIK2 was 10 to 100 nM each time.
As for `CCNC(=O)c1c(OC)cc(-c2cnc3cc(-c4ccc(C#N)nc4)ccn23)cc1OC(F)F` [compound 146, 4-[7-(6-cyano-3-pyridyl)imidazo[1,2-a]pyridin-3-yl]-2-(difluoromethoxy)-N-ethyl-6-methoxy-benzamide], the EC50 in assay [1] lay in the range of 100 to 1000 nM. Moreover, the IC50 is 10 to 100 nM against SIK3, 100 to 500 nM on SIK1 and 10 to 100 nM at SIK2.
In assay [1], `CCNC(=O)c1c(OC)cc(-c2cnc3cc(-c4cnn(C5CCN(C(=O)OC(C)(C)C)CC5)c4)ccn23)cc1OC(F)F` [compound 147, tert-butyl 4-[4-[3-[3-(difluoromethoxy)-4-(ethylcarbamoyl)-5-methoxy-phenyl]imidazo[1,2-a]pyridin-7-yl]pyrazol-1-yl]piperidine-1-carboxylate] yielded an EC50 of 0.1 to 100 nM. Moreover, the IC50 on SIK3, at SIK1 and on SIK2 was 0.01 to 10 nM throughout.
In the case of `CCNC(=O)c1c(OC)cc(-c2cnc3cc(-c4cnn(C5CCNCC5)c4)ccn23)cc1OC(F)F` [compound 149, 2-(difluoromethoxy)-N-ethyl-6-methoxy-4-[7-[1-(4-piperidyl)pyrazol-4-yl]imidazo[1,2-a]pyridin-3-yl]benzamide], the EC50 in assay [1] lay in the range of 100 to 1000 nM. Besides, the IC50 against SIK3, on SIK1 and on SIK2 was 0.01 to 10 nM in each case.
Turning to `CCNC(=O)c1c(OC)cc(-c2cnc3cc(-c4cnn(C(F)F)c4)ccn23)cc1OC(F)F` [compound 151, 2-(difluoromethoxy)-4-[7-[1-(difluoromethyl)pyrazol-4-yl]imidazo[1,2-a]pyridin-3-yl]-N-ethyl-6-methoxy-benzamide], the EC50 in assay [1] fell in the range of 0.1 to 100 nM. The IC50 against SIK3, at SIK1 and at SIK2 was 0.01 to 10 nM each time.
Turning to `COc1cc(-n2cnc3cc(-c4cnc(C)[nH]4)ccc32)cc(OC)c1C(=O)NCC(F)(F)F` [compound 152, 2,6-dimethoxy-4-[5-(2-methyl-1H-imidazol-5-yl)benzimidazol-1-yl]-N(2,2,2-trifluoroethyl)benzamide], the EC50 in assay [1] was in the range of 1000 to 5000 nM. Further, the IC50 against SIK3, on SIK1 and at SIK2 was 10 to 100 nM in each case.

The record behind these values is patent US12065443B2, “Compounds and pharmaceutical compositions thereof for the treatment of diseases” (priority 2017, dated 2024).
